According to US20240390318A1, “PHARMACEUTICAL COMPOSITION COMPRISING CDK INHIBITOR AND ID2 ACTIVATOR FOR PREVENTION OR TREATMENT OF BLADDER CANCER” (THE ASAN FOUNDATION, priority 2021, published 2024):

Assays:
[1] = test system: bladder cancer cell lines; experiment: Western blot of caspase-3 and PARP cleavage; assay type: cell-based, human; settings: for cleavage of caspase-3 and PARP: low concentrations, single or co-treatment
Procedure: (§1) Human BC cell lines T24, 5637, HT1197, HT1376, and RT4 were cultured in Eagle's Minimum Essential (for HT1197 and HT1376), McCoy's 5a Medium Modified (for T24 and RT4), and RPMI-1640 (for […]) medium (ATCC, Manassas, VA, USA) including 10% heat-inactivated FBS (Hyclone, Pittsburgh, PA, USA) and penicillin/streptomycin (Cellgro, Pittsburgh, PA, USA). 40 μM apigenin (Sigma-Aldrich, Burlington, MA, USA), 4-hydroxychalcone (Sigma-Aldrich), and diosmetin (Sigma-Aldrich) were treated for 24 hours to activate ID2 expression, and 20 μM RO-3306 (Sigma-Aldrich) and CGP74514A (Sigma-Aldrich) were treated for 24 hours to inhibit CDK1 activity.
(§2) Cell extracts (30 μg) were prepared in RIPA lysis buffer (Santa Cruz Biotechnology) supplemented with a protease and phosphatase inhibitor cocktail (Roche, Indianapolis, IN, USA) and isolated in a 12% SDS-PAGE gel. An expression level of the labeled protein was assessed by probing with the following antibodies: ID2 (NBP-88630; Novusbio, Centennial, CO, USA), TFCP2L1 (OAAB09732; Aviva Systems Biology, San Diego, CA, USA), CDK1 (sc-54; Santa Cruz), PARP (9542; Cell Signaling), Cleaved Caspase-3 (9661; Cell Signaling), b-ACTIN (A5441; Sigma-Aldrich), and Flag-epitope (F3165; Sigma-Aldrich).

ID2 [2] = experiment: ID2 expression in bladder cancer cells (qPCR, Western blot); assay type: cell-based, human; settings: HT1197 and HT1376 cells; ID2 activators 40 μM, CDK1 inhibitors 20 μM, 24 hours
Procedure: as §1
Real-time quantification PCR was used to perform quantitative analysis of gene expression. Total RNA was extracted using the QIAGEN RNeasy RNA isolation kit (QIAGEN, Valencia, CA, USA), and 50 ng of total RNA was reverse transcribed using Taqman Reverse Transcription Reagents (Applied Biosystems, Foster City, CA, USA). Threshold cycles (Ct) were used to determine the relative expression levels of target genes using the 2-DDCt method. The expression of GAPDH was used as an endogenous control gene.
as §2

TFCP2L1 = TFCP2L1 protein expression in orthotopic xenograft bladder (immunofluorescence); assay type: in vivo, mice; settings: HT1376 orthotopic xenograft; RO-3306 4 mg/kg alone or with apigenin 50 mg/kg i.p.
Procedure: (§3) All animal experiments conducted in this experiment were carried out with the approval of the Institutional Animal Care Committee (IACUC-2020-12-209) of the University of Ulsan College of Medicine. 8-week-old male NOD/[…]) mice were purchased from GEM Biosciences Inc. (Cheongju, South Korea). 100 μl of 1.0×10^6 HT1376 BC cells were injected into the anterior wall of the bladder and the outer layer of the dome using a […] and a 26-gauge needle in the mice adapted for 1 week at the Animal Laboratory of Asan Medical Center, Seoul. Three weeks after orthotopic transplantation of BC cells, mice were injected intraperitoneally with RO-3306 (4 mg/kg) and apigenin (50 mg/kg), either alone or in combination, for 6 times at 4-day intervals. Mice and injection sites were monitored every 2 days for 45 days after the initial administration of BC cells. Tumor size was measured at the endpoint, and the tumor site was recovered by incision to perform histological examination or immunofluorescence assay. Mice were randomly assigned to the treatment group (N=5 or 10) and randomized to the sequence of cell transplantation, treatment, evaluation, and daily checkup. […] The stained samples were photographed using an inverted fluorescence microscope (EVOS FL Color Imaging System, Life Technologies).

HT1376 cells = experiment: Orthotopic xenograft BC animal model, tumor size and histological examination; assay type: in vivo; settings: NSG mice; for tumor growth suppression/inhibition: i.p. apigenin 50 mg/kg and/or RO-3306 4 mg/kg, 6 times at 4-day intervals
Procedure: as §3, with “checkup. Investigations related to tumor size measurement and histological assessment were conducted as blind tests for the treatment group. For histological analysis, the bladder of xenograft mice was fixed with 4% paraformaldehyde for 1 day. After 24 hours of cryoprotection in 30% sucrose, each bladder was cut into 20 μm sections using cryostat (Leica, Lussloch, Germany) and stained with hematoxylin and eosin (H&E). For immunofluorescence (IF) staining, the bladder was stained with antibodies specific to ID2 (NBP-88630; Novusbio), TFCP2L1 (OAAB09732; Aviva Systems Biology), CDK1 (ab131450; Abcam, Cambridge, MA, USA), CD44 (ab78960; Abcam), and Cytokeratin 14 (KRT14; Ab7800).” for “checkup.”

CDK1 = CDK1 protein expression in orthotopic xenograft bladder (immunofluorescence); assay type: in vivo, mice; settings: HT1376 orthotopic xenograft; RO-3306 4 mg/kg alone or with apigenin 50 mg/kg i.p.
Procedure: as §3

[3] = test system: bladder cancer cell lines; experiment: Apoptosis by annexin-V FITC/PI flow cytometry; assay type: cell-based, human; settings: for apoptosis of bladder cancer cells: low concentrations, single or co-treatment; for apoptosis of BC cells: bladder cancer cell lines, apigenin time-dependent treatment
Procedure: as §1
(§4) The cell proliferation ability was determined by MTT assay (Sigma-Aldrich). Apoptosis was analyzed by annexin-V fluorescein isothiocyanate (FITC)/propidium iodide (PI) assay. Cells were subjected to trypsin, harvested, washed with PBS, resuspended in annexin-V binding buffer (10 mM HEPES, pH 7.4, 140 mM NaCl, 2.5 mM CaCl2)), and labeled with Annexin-V FITC and PI. FITC- and/or PI-labeled cell colonies were quantified by flow cytometry (Beckman Coulter, Brea, CA, USA).

[4] = test system: bladder cancer cell lines; experiment: Cell proliferation by MTT assay; assay type: cell-based, human; settings: for cell growth, proliferation: low concentrations, single or co-treatment; for growth of BC cells: bladder cancer cell lines, apigenin with increasing dosage
Procedure: as §1, §4

ID2 [5] = experiment: ID2 protein expression in orthotopic xenograft bladder (immunofluorescence); assay type: in vivo, mice; settings: HT1376 orthotopic xenograft; RO-3306 4 mg/kg alone or with apigenin 50 mg/kg i.p.
Procedure: as §3

[6] = test system: bladder cancer cell lines; experiment: In vitro cell invasion (Transwell, Matrigel); assay type: cell-based, human
Procedure: The upper chamber of the Transwell permeable support (Corning Inc, Corning, NY, USA) with an 8.0 μm pore polycarbonate membrane filter was coated with Matrigel (BD Biosciences) diluted in a 1:5 ratio. BC cells were loaded into the upper chamber at 2×10^4 cell/well concentrations in 100 μL of serum-free DMEM, and culture medium containing 3% FBS was filled into the lower chamber. Cell invasiveness was evaluated by culturing cells at 37° C. for 24 hours in a 5% CO2 incubator and then counting the number of cells that migrated to the bottom of the membrane. Three fields of view (magnification, ×200) were randomly selected from each transwell chamber for quantitative analysis.

[7] = test system: bladder cancer cell lines; experiment: Tumor sphere formation; assay type: cell-based, human
Procedure: To form tumor spheres, BC cells were resuspended in a single-cell suspension mixed with serum-free keratinocyte growth medium (Gibco, Waltham, MA, USA) and growth factor-reduced Matrigel (BD Biosciences, Mountain View, CA, USA) in a 1:1 ratio, and cultured on ultra-low attachment plates (Costar, Corning, NY, USA). The size of the tumor sphere was measured for 7 days after the first culture. For quantitative analysis, Image J software (National Institute of Mental Health, Bethesda, MD, USA) was used to measure the circumference of tumor sphere in eight representative regions randomly selected from each group.

SMILES | cleavage of caspase-3 and PARP [1] | expression of ID2 at RNA and protein levels (ID2 [2]) | expression of TFCP2L1 protein (TFCP2L1) | tumor growth suppression/inhibition (HT1376 cells) [%] | expression of CDK1 protein (CDK1) | apoptosis of bladder cancer cells [3] | cell growth, proliferation [4] | expression level of ID2 protein (ID2 [5]) | invasiveness of BC cells [6] | cleavage of caspase-3 and poly-(ADP-ribose) polymerase (PARP) ([1]; bladder cancer cell lines) | tumor sphere forming ability [7] | histological examination: therapeutic effect, size and progression of bladder cancer (HT1376 cells; i.p. 6 times at 4-day intervals) | apoptosis of BC cells [3] | growth of BC cells [4]
O=C1NC(=NCc2cccs2)S/C1=C\c1ccc2ncccc2c1 [RO-3306] | no significant effect | increased | high | 66.8±2.48 | high | does not induce | no significant effect | low | – | – | – | – | – | –
CCn1cnc2c(Nc3cccc(Cl)c3)nc(N[C@@H]3CCCC[C@@H]3N)nc21 [CGP74514A] | – | increase in ID2 expression | – | – | – | – | – | – | – | – | – | – | – | –
O=c1cc(-c2ccc(O)cc2)oc2cc(O)cc(O)c12 [apigenin] | no significant effect | increased | – | 74±6.13 | – | does not induce | no significant effect | – | remarkably inhibit | resulted in cleavage of caspase-3 and poly-(ADP-ribose) polymerase (PARP) | remarkably inhibit | therapeutic effect of apigenin on bladder cancer regardless of tumor grade | activated | decreased significantly
COc1ccc(-c2cc(=O)c3c(O)cc(O)cc3o2)cc1O [diosmetin] | – | – | – | – | – | – | – | – | – | – | decreased tumor forming ability | – | activated apoptosis | reduced bladder cancer cell growth
O=C(/C=C/c1ccc(O)cc1)c1ccccc1 [4-hydroxychalcone] | – | increase in ID2 expression | – | – | – | – | – | – | – | – | tumor forming ability was reduced | – | activated apoptosis | reduced the growth of bladder cancer cells
